In PubChem BioAssay (NCI):
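Briefly, cells in 96-well plates were exposed to five compound concentrations for 48 h, and endpoints were estimated by linear interpolation. GI50 is the concentration that inhibits growth by half. TGI is the concentration that stops growth completely.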

Tests used:
Assay in all cases: NCI-60 cell line screen, 48 h
ACHN renal = test system: ACHN renal
HT29 colon = test system: HT29 colon
HOP-62 NSCLC = test system: HOP-62 NSCLC
HCT-116 colon = test system: HCT-116 colon
MDA-MB-435 = test system: MDA-MB-435
SK-MEL-5 melanoma = test system: SK-MEL-5 melanoma
SF-295 CNS = test system: SF-295 CNS
SW-620 colon = test system: SW-620 colon
KM12 colon = test system: KM12 colon
T-47D breast = test system: T-47D breast
RPMI-8226 leukemia = test system: RPMI-8226 leukemia
MOLT-4 leukemia = test system: MOLT-4 leukemia
RXF 393 renal = test system: RXF 393 renal
CCRF-CEM leukemia = test system: CCRF-CEM leukemia
UO-31 renal = test system: UO-31 renal
OVCAR-3 ovarian = test system: OVCAR-3 ovarian
A498 renal = test system: A498 renal
MDA-MB-231 breast = test system: MDA-MB-231 breast
HCT-15 colon = test system: HCT-15 colon
BT-549 breast = test system: BT-549 breast
K-562 leukemia = test system: K-562 leukemia
NCI-H522 lung = test system: NCI-H522 lung
OVCAR-8 ovarian = test system: OVCAR-8 ovarian
LOX IMVI melanoma = test system: LOX IMVI melanoma
COLO 205 colon = test system: COLO 205 colon
HCC-2998 colon = test system: HCC-2998 colon
SR leukemia = test system: SR leukemia
TK-10 renal = test system: TK-10 renal
MCF7 breast = test system: MCF7 breast

With `Cc1nc(Nc2nc(C)c3ccc(OCCN4CCOCC4)cc3n2)[nH]c(=O)c1C` the GI50 (ACHN renal) was 3.85 µM, the TGI (ACHN renal) was 19.4 µM and the GI50 (HT29 colon) was 3.01 µM. For the same compound, the TGI (HT29 colon) was 9.94 µM, the GI50 (HOP-62 NSCLC) was 4.59 µM and the TGI (HOP-62 NSCLC) was 20.4 µM. It also gave a GI50 (HCT-116 colon) of 3.09 µM, a TGI (HCT-116 colon) of 12.3 µM and a GI50 (MDA-MB-435) of 4.28 µM. It also gave a TGI (MDA-MB-435) of 15.8 µM, a GI50 (SK-MEL-5 melanoma) of 2.29 µM and a TGI (SK-MEL-5 melanoma) of 6.87 µM. It also gave a GI50 (SF-295 CNS) of 4.43 µM, a TGI (SF-295 CNS) of 57.9 µM and a GI50 (SW-620 colon) of 3.39 µM. The TGI (SW-620 colon) was 20.7 µM, the GI50 (KM12 colon) was 3.14 µM and the TGI (KM12 colon) was 10.8 µM. For the same compound, the GI50 (T-47D breast) was 4.36 µM, the TGI (T-47D breast) was 43.5 µM and the GI50 (RPMI-8226 leukemia) was 2.79 µM. It also gave a TGI (RPMI-8226 leukemia) of 8.33 µM, a GI50 (MOLT-4 leukemia) of 3.05 µM and a TGI (MOLT-4 leukemia) of 22 µM. The GI50 (RXF 393 renal) was 1.95 µM, the TGI (RXF 393 renal) was 4.47 µM and the GI50 (CCRF-CEM leukemia) was 3.26 µM. The TGI (CCRF-CEM leukemia) was 13.8 µM, the GI50 (UO-31 renal) was 2.95 µM and the TGI (UO-31 renal) was 15.2 µM. For the same compound, the GI50 (OVCAR-3 ovarian) was 3.12 µM, the TGI (OVCAR-3 ovarian) was 13.7 µM and the GI50 (A498 renal) was 2.16 µM. For the same compound, the TGI (A498 renal) was 6.52 µM, the GI50 (MDA-MB-231 breast) was 2.45 µM and the TGI (MDA-MB-231 breast) was 6.05 µM. The GI50 (HCT-15 colon) was 3.15 µM, the TGI (HCT-15 colon) was 18.8 µM and the GI50 (BT-549 breast) was 3.55 µM. The TGI (BT-549 breast) was 12.1 µM, the GI50 (K-562 leukemia) was 3.31 µM and the TGI (K-562 leukemia) was 27.4 µM. It also gave a GI50 (NCI-H522 lung) of 2.45 µM, a TGI (NCI-H522 lung) of 8.57 µM and a GI50 (OVCAR-8 ovarian) of 4.04 µM. It also gave a TGI (OVCAR-8 ovarian) of 17.9 µM, a GI50 (LOX IMVI melanoma) of 2.39 µM and a TGI (LOX IMVI melanoma) of 6.72 µM. For the same compound, the GI50 (COLO 205 colon) was 2.25 µM, the TGI (COLO 205 colon) was 5.58 µM and the GI50 (HCC-2998 colon) was 3.1 µM. For the same compound, the TGI (HCC-2998 colon) was 5.43 µM, the GI50 (SR leukemia) was 3.03 µM and the TGI (SR leukemia) was 10.7 µM. For the same compound, the GI50 (TK-10 renal) was 2.99 µM, the TGI (TK-10 renal) was 22.4 µM and the GI50 (MCF7 breast) was 4.15 µM. The TGI (MCF7 breast) was > 100 µM.
